Assay results reported in ChEMBL document CHEMBL1201862, “PubChem BioAssay data set” (2004).
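Each compound was tested at five concentrations against cells in 96-well plates for 48 hours. GI50: concentration for 50% inhibition of growth.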 Calls of active or inactive are those of the source. No stated cut-off is given here; in the data, active = GI50 up to about 1.1 µM and inactive = higher.

Tests used:
Experiment in all cases: NCI tumour cell line growth inhibition, 48 h
[1] = tested on: TK-10
[2] = tested on: LOX IMVI
[3] = tested on: OVCAR-8
[4] = tested on: ACHN
[5] = tested on: MOLT-4
[6] = tested on: DU-145
[7] = tested on: HT-29
[8] = tested on: T47D
[9] = tested on: UACC-62
[10] = tested on: BT-549
[11] = tested on: SF-295
[12] = tested on: SK-MEL-28
[13] = tested on: SW-620
[14] = tested on: NCI-H460
[15] = tested on: HCC 2998
[16] = tested on: 786-0
[17] = tested on: HCT-15
[18] = tested on: A549
[19] = tested on: NCI-H23
[20] = tested on: CAKI-1
[21] = tested on: SNB-75
[22] = tested on: NCI-H226
[23] = tested on: SF-539
[24] = tested on: OVCAR-5
[25] = tested on: HL-60
[26] = tested on: A498
[27] = tested on: SK-MEL-2
[28] = tested on: MDA-N
[29] = tested on: KM12
[30] = tested on: MDA-MB-231
[31] = tested on: RPMI-8226
[32] = tested on: HCT-116
[33] = tested on: UO-31
[34] = tested on: SNB-19
[35] = tested on: K562
[36] = tested on: NCI-H522
[37] = tested on: Hs-578T
[38] = tested on: SN12C
[39] = tested on: EKVX
[40] = tested on: UACC-257
[41] = tested on: COLO 205
[42] = tested on: SF-268
[43] = tested on: IGROV-1
[44] = tested on: CCRF-CEM
[45] = tested on: MDA-MB-435
[46] = tested on: HOP-92
[47] = tested on: SK-OV-3
[48] = tested on: HOP-62
[49] = tested on: RXF 393
[50] = tested on: M14
[51] = tested on: PC-3
[52] = tested on: OVCAR-4
[53] = tested on: U-251
[54] = tested on: NCI/ADR-RES
[55] = tested on: Malme-3M
[56] = tested on: MCF7
[57] = tested on: SK-MEL-5
[58] = tested on: SR
[59] = tested on: OVCAR-3

Compound: Oc1ccc(Cl)cc1Cc1cc(Cl)cc(Cc2cc(Cl)ccc2O)c1O
- GI50 [1]: 2.72 µM (inactive)
- GI50 [2]: 2.9 µM (inactive)
- GI50 [3]: 3.43 µM (inactive)
- GI50 [4]: 2.29 µM (inactive)
- GI50 [5]: 2.34 µM (inactive)
- GI50 [6]: 2.96 µM (inactive)
- GI50 [7]: 3 µM (inactive)
- GI50 [8]: 2.07 µM (inactive)
- GI50 [9]: 2.15 µM (inactive)
- GI50 [10]: 2.79 µM (inactive)
- GI50 [11]: 2.29 µM (inactive)
- GI50 [12]: 3.24 µM (inactive)
- GI50 [13]: 3.29 µM (inactive)
- GI50 [14]: 1.77 µM (inactive)
- GI50 [15]: 0.836 µM (active)
- GI50 [16]: 2.81 µM (inactive)
- GI50 [17]: 2.54 µM
- GI50 [18]: 2.83 µM (inactive)
- GI50 [19]: 2.01 µM (inactive)
- GI50 [20]: 2.48 µM (inactive)
- GI50 [21]: 1.93 µM (inactive)
- GI50 [22]: 2.74 µM (inactive)
- GI50 [23]: 1.64 µM (inactive)
- GI50 [24]: 3.17 µM (inactive)
- GI50 [25]: 2.3 µM (inactive)
- GI50 [26]: 1.46 µM (inactive)
- GI50 [27]: 2.61 µM (inactive)
- GI50 [28]: 2.66 µM (inactive)
- GI50 [29]: 2.64 µM (inactive)
- GI50 [30]: 2.53 µM (inactive)
- GI50 [31]: 0.91 µM (active)
- GI50 [32]: 2.28 µM (inactive)
- GI50 [33]: 3.01 µM (inactive)
- GI50 [34]: 2.56 µM (inactive)
- GI50 [35]: 1.63 µM (inactive)
- GI50 [36]: 0.766 µM (active)
- GI50 [37]: 1.88 µM (inactive)
- GI50 [38]: 2.4 µM (inactive)
- GI50 [39]: 2.33 µM (inactive)
- GI50 [40]: 2.01 µM (inactive)
- GI50 [41]: 1.76 µM (inactive)
- GI50 [42]: 2.69 µM (inactive)
- GI50 [43]: 3.2 µM (inactive)
- GI50 [44]: 1.47 µM (inactive)
- GI50 [45]: 2.82 µM (inactive)
- GI50 [46]: 1.26 µM (inactive)
- GI50 [47]: 2.43 µM (inactive)
- GI50 [48]: 2.5 µM (inactive)
- GI50 [49]: 1.84 µM (inactive)
- GI50 [50]: 2.39 µM (inactive)
- GI50 [51]: 2.45 µM (inactive)
- GI50 [52]: 2.83 µM (inactive)
- GI50 [53]: 2.7 µM (inactive)
- GI50 [54]: 2.04 µM (inactive)
- GI50 [55]: 1.95 µM (inactive)
- GI50 [56]: 2.21 µM (inactive)
- GI50 [57]: 1.11 µM (active)
- GI50 [58]: 2.82 µM (inactive)
- GI50 [59]: 2.24 µM (inactive)

Compound: CN(C)CCCNC(=O)c1cc(NS(=O)(=O)c2ccc3c(c2)C(=O)c2ccccc2C3=O)cn1C
- GI50 [1]: 25.2 µM (inactive)
- GI50 [2]: 13.8 µM (inactive)
- GI50 [3]: 40.3 µM (inactive)
- GI50 [4]: 14.6 µM (inactive)
- GI50 [5]: 32.7 µM (inactive)
- GI50 [6]: 40.3 µM (inactive)
- GI50 [7]: 28.8 µM (inactive)
- GI50 [8]: 35.2 µM (inactive)
- GI50 [9]: 20.8 µM (inactive)
- GI50 [10]: 24.5 µM (inactive)
- GI50 [11]: 31.3 µM (inactive)
- GI50 [12]: 27.1 µM (inactive)
- GI50 [13]: 46.3 µM (inactive)
- GI50 [14]: 18.8 µM (inactive)
- GI50 [15]: 24.5 µM (inactive)
- GI50 [16]: 28.7 µM (inactive)
- GI50 [17]: 42.8 µM
- GI50 [18]: 35.9 µM (inactive)
- GI50 [19]: 24.1 µM (inactive)
- GI50 [20]: 67.6 µM (inactive)
- GI50 [21]: 30.8 µM (inactive)
- GI50 [22]: 22.9 µM (inactive)
- GI50 [23]: 42.8 µM (inactive)
- GI50 [24]: 35.6 µM (inactive)
- GI50 [25]: 22.1 µM (inactive)
- GI50 [26]: 23.2 µM (inactive)
- GI50 [27]: 40.5 µM (inactive)
- GI50 [28]: 28.1 µM (inactive)
- GI50 [29]: 17.8 µM (inactive)
- GI50 [30]: 24.8 µM (inactive)
- GI50 [31]: 14.8 µM (inactive)
- GI50 [32]: 51.3 µM (inactive)
- GI50 [33]: 56.4 µM (inactive)
- GI50 [34]: 12.8 µM (inactive)
- GI50 [35]: 30 µM (inactive)
- GI50 [36]: 22.6 µM (inactive)
- GI50 [37]: 76.4 µM (inactive)
- GI50 [38]: 29.1 µM (inactive)
- GI50 [39]: > 100 µM (inactive)
- GI50 [40]: 19.2 µM (inactive)
- GI50 [41]: 23.6 µM (inactive)
- GI50 [42]: 29.5 µM (inactive)
- GI50 [43]: 33 µM (inactive)
- GI50 [44]: 21.5 µM (inactive)
- GI50 [45]: 25.4 µM (inactive)
- GI50 [46]: 32.1 µM (inactive)
- GI50 [47]: 92.5 µM (inactive)
- GI50 [48]: 37.8 µM (inactive)
- GI50 [49]: 28 µM (inactive)
- GI50 [50]: 22.3 µM (inactive)
- GI50 [51]: 33.3 µM (inactive)
- GI50 [52]: 16.8 µM (inactive)
- GI50 [53]: 29.1 µM (inactive)
- GI50 [54]: > 100 µM (inactive)
- GI50 [55]: 5.5 µM (inactive)
- GI50 [56]: 19.5 µM (inactive)
- GI50 [57]: 13.1 µM (inactive)
- GI50 [58]: 21.9 µM (inactive)
- GI50 [59]: 13.5 µM (inactive)
